ChEMBL document CHEMBL3046966, “Structure and Fungicidal Activities of 2-Methoxyimino-N-methyl-2-[2-(substituted pyridyloxymethyl)phenyl]acetamide Derivatives” (1998)

What was measured:
Type in all cases: functional
Botrytis cinerea [1] = assay: Fungicidal activity against Botryotinia fuckeliana assessed as cucumber gray mold disease control at 2 ppm foliar application 24 hr before inoculation by preventive manner
[2] = test system: Blumeria graminis f. sp. tritici; assay: Fungicidal activity against Blumeria graminis f. sp. tritici assessed as wheat powdery mildew disease control at 7.8 ppm foliar application for 24 hr before inoculation by preventive manner
Pyricularia oryzae [3] = assay: Fungicidal activity against Magnaporthe oryzae assessed as rice blast disease control at 125 ppm foliar application for 24 hr before inoculation by preventive manner
[4] = test system: Pseudoperonospora cubensis; assay: Fungicidal activity against Pseudoperonospora cubensis assessed as cucumber downy mildew disease control at 31.3 ppm foliar application 24 hr after inoculation by preventive manner
[5] = test system: Pseudoperonospora cubensis; assay: Fungicidal activity against Pseudoperonospora cubensis assessed as cucumber downy mildew disease control at 7.8 ppm foliar application 24 hr after inoculation by curative manner
Pyricularia oryzae [6] = assay: Fungicidal activity against Magnaporthe oryzae assessed as rice blast disease control at 31.3 ppm foliar application for 24 hr after inoculation by curative manner
Podosphaera fuliginea [7] = assay: Fungicidal activity against Podosphaera fuligineas assessed as cucumber […] mildew disease control at 31.3 ppm foliar application 24 hr before inoculation by preventive manner
[8] = test system: Blumeria graminis f. sp. tritici; assay: Fungicidal activity against Blumeria graminis f. sp. tritici assessed as wheat powdery mildew disease control at 2 ppm foliar application for 24 hr after inoculation by curative manner
Podosphaera fuliginea [9] = assay: Fungicidal activity against Podosphaera fuligineas assessed as cucumber […] mildew disease control at 31.3 ppm foliar application 24 hr after inoculation by curative manner
Botrytis cinerea [10] = assay: Fungicidal activity against Botryotinia fuckeliana assessed as cucumber gray mold disease control at 2 ppm foliar application 24 hr after inoculation by curative manner
Podosphaera fuliginea [11] = assay: Fungicidal activity against Podosphaera fuligineas assessed as cucumber […] mildew disease control at 2 ppm foliar application 24 hr after inoculation by curative manner
Pyricularia oryzae [12] = assay: Fungicidal activity against Magnaporthe oryzae assessed as rice blast disease control at 2 ppm foliar application for 24 hr before inoculation by preventive manner
Botrytis cinerea [13] = assay: Fungicidal activity against Botryotinia fuckeliana assessed as cucumber gray mold disease control at 7.8 ppm foliar application 24 hr before inoculation by preventive manner
Podosphaera fuliginea [14] = assay: Fungicidal activity against Podosphaera fuligineas assessed as cucumber […] mildew disease control at 7.8 ppm foliar application 24 hr before inoculation by preventive manner
[15] = test system: Blumeria graminis f. sp. tritici; assay: Fungicidal activity against Blumeria graminis f. sp. tritici assessed as wheat powdery mildew disease control at 2 ppm foliar application for 24 hr before inoculation by preventive manner
[16] = test system: Pseudoperonospora cubensis; assay: Fungicidal activity against Pseudoperonospora cubensis assessed as cucumber downy mildew disease control at 31.3 ppm foliar application 24 hr after inoculation by curative manner
Pyricularia oryzae [17] = assay: Fungicidal activity against Magnaporthe oryzae assessed as rice blast disease control at 2 ppm foliar application for 24 hr after inoculation by curative manner
Pyricularia oryzae [18] = assay: Fungicidal activity against Magnaporthe oryzae assessed as rice blast disease control at 7.8 ppm foliar application for 24 hr before inoculation by preventive manner
[19] = test system: Pseudoperonospora cubensis; assay: Fungicidal activity against Pseudoperonospora cubensis assessed as cucumber downy mildew disease control at 2 ppm foliar application 24 hr after inoculation by curative manner
[20] = test system: Pseudoperonospora cubensis; assay: Fungicidal activity against Pseudoperonospora cubensis assessed as cucumber downy mildew disease control at 7.8 ppm foliar application 24 hr after inoculation by preventive manner
Podosphaera fuliginea [21] = assay: Fungicidal activity against Podosphaera fuligineas assessed as cucumber […] mildew disease control at 2 ppm foliar application 24 hr before inoculation by preventive manner
Pyricularia oryzae [22] = assay: Fungicidal activity against Magnaporthe oryzae assessed as rice blast disease control at 7.8 ppm foliar application for 24 hr after inoculation by curative manner
[23] = test system: Blumeria graminis f. sp. tritici; assay: Fungicidal activity against Blumeria graminis f. sp. tritici assessed as wheat powdery mildew disease control at 7.8 ppm foliar application for 24 hr after inoculation by curative manner
Botrytis cinerea [24] = assay: Fungicidal activity against Botryotinia fuckeliana assessed as cucumber gray mold disease control at 31.3 ppm foliar application 24 hr after inoculation by curative manner
Botrytis cinerea [25] = assay: Fungicidal activity against Botryotinia fuckeliana assessed as cucumber gray mold disease control at 31.3 ppm foliar application 24 hr before inoculation by preventive manner
[26] = test system: Pseudoperonospora cubensis; assay: Fungicidal activity against Pseudoperonospora cubensis assessed as cucumber downy mildew disease control at 2 ppm foliar application 24 hr before inoculation by preventive manner
Botrytis cinerea [27] = assay: Fungicidal activity against Botryotinia fuckeliana assessed as cucumber gray mold disease control at 7.8 ppm foliar application 24 hr after inoculation by curative manner
[28] = test system: Pseudoperonospora cubensis; assay: Fungicidal activity against Pseudoperonospora cubensis assessed as cucumber downy mildew disease control at 125 ppm foliar application 24 hr after inoculation by preventive manner
Pyricularia oryzae [29] = assay: Fungicidal activity against Magnaporthe oryzae assessed as rice blast disease control at 125 ppm foliar application for 24 hr after inoculation by curative manner
[30] = test system: Blumeria graminis f. sp. tritici; assay: Fungicidal activity against Blumeria graminis f. sp. tritici assessed as wheat powdery mildew disease control at 31.3 ppm foliar application for 24 hr before inoculation by preventive manner
Botrytis cinerea [31] = assay: Fungicidal activity against Botryotinia fuckeliana assessed as cucumber gray mold disease control at 125 ppm foliar application 24 hr before inoculation by preventive manner
[32] = test system: Blumeria graminis f. sp. tritici; assay: Fungicidal activity against Blumeria graminis f. sp. tritici assessed as wheat powdery mildew disease control at 125 ppm foliar application for 24 hr after inoculation by curative manner
Podosphaera fuliginea [33] = assay: Fungicidal activity against Podosphaera fuligineas assessed as cucumber […] mildew disease control at 7.8 ppm foliar application 24 hr after inoculation by curative manner
Botrytis cinerea [34] = assay: Fungicidal activity against Botryotinia fuckeliana assessed as cucumber gray mold disease control at 125 ppm foliar application 24 hr after inoculation by curative manner
Pyricularia oryzae [35] = assay: Fungicidal activity against Magnaporthe oryzae assessed as rice blast disease control at 31.3 ppm foliar application for 24 hr before inoculation by preventive manner
[36] = test system: Blumeria graminis f. sp. tritici; assay: Fungicidal activity against Blumeria graminis f. sp. tritici assessed as wheat powdery mildew disease control at 31.3 ppm foliar application for 24 hr after inoculation by curative manner

| SMILES | Activity [2] | Activity (Pyricularia oryzae [3]) | Activity (Pyricularia oryzae [6]) | Activity [8] | Activity (Botrytis cinerea [10]) | Activity (Podosphaera fuliginea [11]) | Activity (Botrytis cinerea [13]) | Activity (Podosphaera fuliginea [14]) | Activity [15] | Activity [16] | Activity (Pyricularia oryzae [18]) | Activity [19] | Activity (Podosphaera fuliginea [21]) | Activity (Pyricularia oryzae [22]) | Activity (Botrytis cinerea [24]) | Activity [28] | also measured |
| --- | --- | --- | --- | --- | --- | --- | --- | --- | --- | --- | --- | --- | --- | --- | --- | --- | --- |
| CNC(=O)/C(=N/OC)c1ccccc1COc1ccc(Cl)cn1 | 90% | 90% | 90% | 90% | 90% |  |  |  |  |  |  |  |  |  |  |  | Activity (Botrytis cinerea [1]): 90%; Activity [4]: 90%; Activity [5]: 90%; Activity (Podosphaera fuliginea [7]): 90%; Activity (Podosphaera fuliginea [9]): 90% |
| CNC(=O)/C(=N/OC)c1ccccc1COc1ncccc1C(F)(F)F |  |  |  | 90% | 90% | 90% | 90% | 90% | 90% | 90% |  |  |  |  |  |  | Activity (Pyricularia oryzae [12]): 90%; Activity [4]: 90%; Activity (Pyricularia oryzae [17]): 90% |
| CNC(=O)/C(=N/OC)c1ccccc1COc1ncc(C(F)(F)F)cc1Cl |  |  |  | 90% | 90% | 90% |  |  | 90% |  | 90% | 90% | 90% | 90% |  |  | Activity (Botrytis cinerea [1]): 90%; Activity [20]: 90% |
| CNC(=O)/C(=N/OC)c1ccccc1COc1ncc(Cl)cc1Cl | 90% |  | 90% |  |  | 90% |  |  |  |  | 90% | 90% | 90% |  | 90% |  | Activity [23]: 90%; Activity (Botrytis cinerea [25]): 90%; Activity [26]: 90% |
| CNC(=O)/C(=N/OC)c1ccccc1COc1ncc(Cl)cc1C(F)(F)F |  |  |  | 90% | 90% | 90% | 90% |  | 90% |  | 90% | 90% | 90% | 90% |  |  | Activity [20]: 90% |
| CNC(=O)/C(=N/OC)c1ccccc1COc1nc(Cl)ccc1C(F)(F)F |  |  |  | 90% |  | 90% | 90% |  | 90% |  | 90% | 90% | 90% | 90% |  |  | Activity [26]: 90%; Activity (Botrytis cinerea [27]): 90% |
| CNC(=O)/C(=N/OC)c1ccccc1COc1ccc(C(F)(F)F)c(OC(C)C)n1 |  | 90% |  |  |  |  |  | 90% |  | 90% |  |  |  |  |  | <90% | Activity (Pyricularia oryzae [29]): 90%; Activity [30]: 90%; Activity (Botrytis cinerea [31]): <90%; Activity [32]: 90%; Activity (Podosphaera fuliginea [33]): 90%; Activity (Botrytis cinerea [34]): <90% |
| CNC(=O)/C(=N/OC)c1ccccc1COc1nc(Cl)c(C(F)(F)F)cc1Cl | 90% |  | 90% | 90% |  | 90% | 90% |  |  |  |  | 90% | 90% |  | 90% | 90% | Activity (Pyricularia oryzae [35]): 90% |
| CNC(=O)/C(=N/OC)c1ccccc1COc1ccccn1 | 90% | <90% |  |  |  |  |  | 90% |  | 90% |  |  |  |  | 90% | 90% | Activity (Pyricularia oryzae [29]): <90%; Activity (Botrytis cinerea [25]): 90%; Activity (Podosphaera fuliginea [9]): 90%; Activity [36]: 90% |
